Molecules are shown by their SMILES.

The subject of one assay is L1210 cells. Briefly: Action on the cell cycle. The class given is cell-based, murine. Particulars: 500 nM, 21 hours, 37° C.; control: 20%. How it is done:
L1210 cells are incubated for 21 hours at 37° C. in the presence of different concentrations of the products being tested. The cells are then fixed using 70% (v/v) ethanol, washed twice in PBS and incubated for 30 minutes at 20° C. in PBS containing 100 μg/ml of RNase and 50 μg/ml of propidium iodide. The results are expressed as the percentage of cells that have accumulated in the G2+M phase after 21 hours, compared to the control (control: 20%). At a concentration of 500 nM, the compound of Example 8 causes 80-90% of the cells to accumulate in the G2+M phase after 21 hours.

The next assay concerns P388 leukaemia. Briefly: In vivo anti-tumour activity on the P388 leukaemia. Set-up: species or system female BDF1 mice. As to conditions: intraperitoneal, once per day for 4 days (D1-4). On the procedure: Line P388 (murine leukaemia) was supplied by the National Cancer Institute (Frederick, U.S.A.). The tumour cells (10^6 cells) were inoculated on day 0 into the peritoneal cavity of female BDF1 mice (Iffa-Credo, France) weighing from 18 to 20 g (groups of 6 animals). The products were administered by the intraperitoneal route once per day for 4 days (D1-4) at the doses indicated.
(§1) The anti-tumour activity is expressed as % T/C: [formula]

In assay [1] the test system is IGROV1 human ovarian carcinoma cells. Briefly: In vitro cytotoxicity (Microculture Tetrazolium Assay), IGROV1. It counts as cell-based. Particulars: IGROV-1, 96 h, IGROV1, 4 days incubation, read-out: IC50, concentration that inhibits the proliferation of the treated cells by 50%. On the procedure: (§2) Six cell lines were used:
1 human ovarian carcinoma, IGROV1.
(§3) The cells are cultured in RPMI 1640 complete culture medium containing 10% fetal calf serum, 2 mM glutamine, 50 units/ml of penicillin, 50 μg/ml of streptomycin and 10 mM Hepes, pH=7.4. The cells are distributed on microtitre plates and exposed to the cytotoxic compounds. The cells are then incubated for 2 days (P388, L1210) or 4 days (A549, KB-A1, KB-3-1, IGROV1). The number of viable cells is then quantified by means of a calorimetric assay, the Microculture Tetrazolium Assay (Cancer Res. 1987, 47, 939-942).
(§4) The results are expressed as IC50, the concentration of cytotoxic agent that inhibits the proliferation of the treated cells by 50%.

Assay [2] deals with KB-A1 multi-drug resistant (adriamycin) human epidermoid carcinoma cells. Briefly: In vitro cytotoxicity (Microculture Tetrazolium Assay), KB-A1. The class given is cell-based. Particulars: 96 h, KB-A1, 4 days incubation, read-out: IC50, concentration that inhibits the proliferation of the treated cells by 50%. How it is done: as §2
(§5) 1 human epidermoid carcinoma, KB-3-1 , and the corresponding resistant line, KB-A 1, the multi-drug, resistance of which was produced using adriamycin (ADR),
as §3, §4

The subject of assay [3] is P388 murine leukaemia cells. Briefly: In vitro cytotoxicity (Microculture Tetrazolium Assay), P388. It counts as cell-based. Particulars: Mus musculus, 48 h; P388, 2 days incubation; read-out: IC50, concentration that inhibits the proliferation of the treated cells by 50%. On the procedure:
as §2, §3, §4

The subject of assay [4] is cells originating from human solid tumours. Briefly: In vitro cytotoxicity, human solid tumour cells compared with murine leukaemias. Particulars: versus P388 and L1210. The class given is cell-based. How it is done:
as §2, §3, §4

In assay [5] the test system is KB-3-1 human epidermoid carcinoma cells. Briefly: In vitro cytotoxicity (Microculture Tetrazolium Assay), KB-3-1. The class given is cell-based. Particulars: 96 h, KB-3-1, 4 days incubation, read-out: IC50, concentration that inhibits the proliferation of the treated cells by 50%. On the procedure: as §2, §5, §3, §4
Assay [6] has as its system L1210 murine leukaemia cells. Briefly: In vitro cytotoxicity (Microculture Tetrazolium Assay), L1210. As to conditions: Mus musculus, 48 h; L1210, 2 days incubation; read-out: IC50, concentration that inhibits the proliferation of the treated cells by 50%. The class given is cell-based. On the procedure:
as §2, §3, §4

The subject of a further assay is IGROV1 ovarian carcinoma. Briefly: In vivo anti-tumour activity on the IGROV1 ovarian carcinoma. Also noted: species or system nude BABL/C mice. As to conditions: 200 mg/kg, intraperitoneal, once per week on days 4, 11 and 18. How it is done:
as §1
IGROV1 tumour cells (10^7 cells) were incubated on day 0 in the peritoneal cavity of nude BABL/C mice (groups of 5 animals). The products were administered by the intraperitoneal route once per week on days 4, 11 and 18. The anti-tumour activity is expressed as % T/C as defined hereinbefore. The compound of Example 8 is active at the 200 mg/kg dose and increases the survival of the treated animals by 60% (T/C=160%).

For assay [7], the system named is A549 human non-small-cell lung carcinoma cells. Briefly: In vitro cytotoxicity (Microculture Tetrazolium Assay), A549. As to conditions: 96 h, A549, 4 days incubation, read-out: IC50, concentration that inhibits the proliferation of the treated cells by 50%. The class given is cell-based. On the procedure: as §2
1 human non-small-cell lung carcinoma, A549,
as §3, §4

Consider `O=C1c2scc(-c3ccc(O)c(O)c3)c2-n2cccc21` [Example 8, 3-(3,4-Dihydroxyphenyl)-8H-thieno[2,3-b]pyrrolizin-8-one], for which, in the assay on L1210 cells, the “percentage of cells that have accumulated in the G2+M phase” value was 80-90%. Further, in the assay with P388 leukaemia (Mus musculus, P388, ip, read-out: dose from which the compound is active), the minimal effective dose is at least 25 mg/kg. The “increase in survival of the treated animals” value in the assay on P388 leukaemia (active from the 25 mg/kg dose) is given as 70%; in the assay with IGROV1 ovarian carcinoma it was 60%. Also, the IC50 in assay [1] was 56 nM; in [2] it was 22 nM; in assay [3], 356 nM; in [5] it was 33 nM; in assay [6] it was 222 nM; in assay [7] it was 122 nM. The “effect on cells originating from human solid tumours compared with the two murine leukaemias” value in assay [4] is recorded as “more potent effect on the cells originating from human solid tumours than on the two murine leukaemias”. Besides, the T/C in the assay on IGROV1 ovarian carcinoma is 160%.

As usually defined, the T/C is the result in the treated group divided by that in the control group, in per cent.

The values are drawn from patent US6071945A, “8H-thieno-[2,3-b]pyrrolizin-8-one compounds” (Adir et Compagnie, priority 1998, dated 2000).
